Like-named read-outs stand apart in the source and are kept apart here.
Experiments:
[1] = system: vacuolar GS-X pump (vacuolar membrane vesicles, V. radiata hypocotyls); test: GS-conjugate uptake by vacuolar membrane vesicles from etiolated hypocotyls of V. radiata; format: biochemical, Vigna radiata
Description: Values shown are means ±SE (n=3).
Vacuolar membrane vesicles were purified from etiolated hypocotyls of V. radiata cv.
Unless otherwise indicated, [^3 H]medicarpin or [3H]medicarpin-GS uptake was measured at 25° C. in 200 μl reaction volumes containing 3 mM ATP, 3 mM MgSO4, 10 mM creatine phosphate, 16 U/ml creatine kinase, 50 mM KCl, 0.1% (w/v) BSA, 400 mM sorbitol and 25 mM Tris-Mes buffer, pH 8.0. Uptake was initiated by the addition of 12 μl membrane vesicles (30-40 μg protein) and brief mixing of the samples on a vortex mixer. Uptake was terminated by the addition of 1 ml ice-cold wash medium (400 mM sorbitol, 3 mM Tris-Mes, pH 8.0) and vacuum filtration of the suspension through prewetted HA cellulose nitrate filters (pore diameter 0.45 μm). The filters were rinsed twice with a 1 ml ice-cold wash medium, air-dried and radioactivity was determined by liquid scintillation counting.

[2] = system: vacuolar membrane vesicles purified from DTY167 cells (ycf1Δ mutant); format: biochemical, Saccharomyces cerevisiae; settings: 5 μM gramicidin D
Description: (§1) For the routine preparation of vacuolar membrane vesicles, 15 ml of stationary phase cultures of DTY165 or DTY167 were diluted into 1-liter volumes of fresh YPD medium, grown for 24 hours at 30° C. to an OD600 nm of approximately 0.8 and collected by centrifugation. After washing with distilled water, the cells were converted to spheroplasts with Zymolyase 20T (ICN) (Kim et al., 1994, supra) and intact vacuoles were isolated by flotation centrifugation of spheroplast lysates on Ficoll 400 step gradients as described by Roberts et al. (1991, Methods. Enzymol. 194:644-661). Both the spheroplast lysis buffer and Ficoll gradients contained 2 mg/ml bovine serum albumin, 1 μg/ml aprotinin, 1 μg/ml leupeptin, 1 μg/ml pepstatin, and 1 mM PMSF to minimize proteolysis. The resulting vacuole fraction was vesiculated in 5 mM MgCl2, 25 mM KCl, 10 mM Tris-Mes (pH 6.9) containing 2 mg/ml bovine serum albumin, 1 μg/ml aprotinin, 1 μg/ml leupeptin, 1 μg/ml pepstatin, and 1 mM PMSF, pelleted by centrifugation at 37,000× g for 25 min, and resuspended in suspension medium (1.1 M glycerol, 2 mM dithiothreitol, 1 mM Tris-EGTA, 2 mg/ml bovine serum albumin, 1 μg/ml aprotinin, 1 μg/ml leupeptin, 1 μg/ml pepstatin, 1 mM PMSF, 5 mM Tris-Mes, pH 7.6) (Kim et al., 1995, J. Biol. Chem. 270:2630-2635).
(§2) Unless otherwise indicated, [^3 H]DNP-GS uptake was measured at 25° C. in 200 μl reaction volumes containing 3 mM ATP, 3 mM MgSO4, 5 μM gramicidin-D, 10 mM creatine phosphate, 16 units/ml creatine kinase, 50 mM KC 1, 1 mg/ml bovine serum albumin, 400 mM sorbitol, 25 mM Tris-Mes (pH 8.0), and 66.2 μM [^3 H]DNP-GS (8.7 mCi/mmol) (Li et al., 1995, supra). […] Uptake was initiated by the addition of vacuolar membrane vesicles (10-15 μg of membrane protein), brief mixing of the samples on a vortex mixer and uptake was then allowed to proceed for 1-60 minutes. Uptake was terminated by the addition of 1 ml of ice-cold wash medium (400 mM sorbitol, 3 mM Tris-Mes, pH 8.0) and vacuum filtration of the suspension through prewetted Millipore HA cellulose nitrate membrane filters (pore diameter, 0.45 μm). The filters were rinsed twice with 1 ml of ice-cold wash medium and air-dried, and radioactivity was determined by liquid scintillation counting in BCS mixture (Amersham Corp.). Nonenergized [^3 H]DNP-GS uptake and extravesicular solution trapped on the filters were enumerated by the same procedure except that ATP and Mg^2 +were omitted from the uptake medium.

[3] = target: T1, YCF1 (vacuolar membrane vesicles purified from DTY165 cells) (Saccharomyces cerevisiae, UniProt P39109); test: [3H]DNP-GS uptake by vacuolar membrane vesicles purified from DTY165 cells; format: biochemical; settings: for IC50: 5 μM gramicidin D, read-out: I50 for MgATP-dependent, uncoupler-insensitive DNP-GS uptake
T1 construct: endogenous in cells; host or cells: S. cerevisiae DTY165 (wild type YCF1), vacuolar membrane vesicles
Description: as §1, §2

[4] = system: endogenous GS-X pump of plant vacuolar membranes; settings: cited from earlier work
[5] = system: membrane vesicles purified from pYES3-transformed DTY168 cells; test: DNP-GS uptake by membrane vesicles from pYES3 (empty vector)-transformed DTY168 cells; format: biochemical, Saccharomyces cerevisiae
Description: S. cerevisiae strain DTY168 (MATα his6, leu2-3, -112, ura3-52 ycf1::hisG) was transformed with pYES3-AtMRP1 or empty vector lacking the AtMRP1 insert (pYES3) by the LiOAc/PEG method (Giest et al., 1991, Yeast 7:253-263) and selected for uracil prototrophy by plating on AHC medium containing tryptophan (Kim et al., 1994, supra).
For the preparation of membrane vesicles, 15 ml volumes of stationary phase cultures of the transformants were diluted into 1 L of fresh AHC medium and grown to an OD600 nm of about 1.2. Membrane vesicles were purified as described herein and in Kim et al. (1995, supra).
DNP-GS uptake was measured as described herein in 200 μl reaction volumes containing 3 mM ATP, 3 mM MgSO4, 5 μM gramicidin-D, 10 mM creatine phosphate, 16 units/ml creatine kinase, 50 mM KCl, 1 mg/ml BSA, 400 mM sorbitol, 25 mM Tris-Mes (pH 8.0) and the indicated concentrations of [^3 H]DNP-GS (17.4 mCi/mmol).

[6] = system: vacuolar GS-X pump (vacuolar membrane vesicles, Z. mays roots); test: GS-conjugate uptake by vacuolar membrane vesicles from roots of Z. mays; format: biochemical, Zea mays
DTY165 cells = test: Growth inhibition of DTY165 (wild type) cells by CDNB; format: cell-based; settings: Saccharomyces cerevisiae, 24 hours, read-out: diminution of optical density of culture
Description: (§3) FIGS. 1A-1B are a series of graphs depicting differential sensitivities of DYT165 cells (wild type, FIG. 1A) and DTY167 cells (ycf1Δ mutant, FIG. 1B) to growth inhibition by 1-chloro-2,4-dinitrobenzene (CDNB). Cells were grown at 30° C. for 24 hours to an OD600 nm of approximately 1.4 in YPD medium before inoculation of aliquots into 15 ml volumes of the same medium containing 0-60 μM CDNB. OD600 nm was measured at the times indicated.
(§4) Two strains of S. cerevisiae were used in these studies: DTY165 (MATα ura3-52 his6 leu2-3,-112 his3-Δ200 trp1-901 lys2-801 suc2-Δ) and the isogenic ycf1Δ mutant strain, DTY167 (MATα ura 3-52 his6 leu2-3,-112 his3-Δ200 trp 1-901 lys2-801 suc2-Δ, ycf1::hisG). The strains were routinely grown in rich (YPD) medium, or, when transformed with plasmid containing functional YCF1 gene, in synthetic complete medium (Sherman et al., 1983, Methods in Yeast Genetics, Cold Spring Harbor Laboratory, New York) or AHC medium (Kim et al., 1994, supra) lacking the appropriate amino acids. Escherichia coli strains XL1-blue (Stratagene) and DH11S were employed for the construction and maintenance of plasmid stocks (Ausubel et al., 1987, Current Protocols in Molecular Biology, Wiley, New York).
(§5) The isogenic wild type strain DTY165 and the ycf1Δ mutant strain, DTY167, were indistinguishable during growth in YPD medium lacking CDNB; both strains grew at the same rate after a brief lag. However, the addition of CDNB to the culture medium caused a greater retardation of the growth of DTY167 cells (FIG. 1B) than DTY165 cells (FIG. 1A). […] The optical densities of the DTY167 cultures were diminished by 65, 82, 85, and 91% by 40, 50, 60, and 70 μM CDNB, respectively, after 24 hours of incubation (FIG. 1B), whereas the corresponding diminutions for the DTY165 cultures were 14, 31, 59, and 92% (FIG. 1A). The increase in sensitivity to CDNB conferred by deletion of the YCF1 gene was similar to that seen with cadmium.

DTY167 cells = test: Growth inhibition of DTY167 (ycf1Δ mutant) cells by CDNB; format: cell-based; settings: Saccharomyces cerevisiae, 24 hours, read-out: diminution of optical density of culture
Description: as §3, §4, §5

[7] = target: T1, YCF1 (vacuolar membrane vesicles purified from DTY165 cells); test: biochemical; format: biochemical; settings: 24 h, read-out: increase of 109Cd.GS2 uptake into vesicles from pretreated cells
Description: In experiments involving cadmium transport, dithiothreitol and EGTA were removed from the suspension medium to prevent the attenuation of YCF1-dependent Cd^2+ transport otherwise exerted by these compounds. Vesiculated vacuolar membranes were subjected to three cycles of 50-fold dilution into simplified suspension medium (1.1 M glycerol, 5 mM Tris-Mes, pH 8.0), centrifugation at 100,000× g for 35 minutes and resuspension in the same medium before use.
Singly radiolabeled ^109 Cd.GSn and doubly radio-labeled ^109 Cd[^3 H].GS^n complexes were prepared by sequential gel-filtrationand anion-exchange chromatography of the reaction products generated by incubating 20 mM ^109 CdSO4 (78.4 mCi/mmol) with 40 mM GSH or 40 mM [^3 H]GSH (240 mCi/mmol) in 15 ml 10 mM phosphate buffer (pH 8.0) containing 150 mM KNO3 at 45° C. for 24 hours. For gel-filtration, 2 ml aliquots of the reaction mixture were applied to a column (40×1.5 cm ID) packed with water-equilibrated Sephadex G-1 5, eluted with deionized water and ^109 Cd and/or ^3 H in the fractions was measured by liquid scintillation counting. The fractions encompassed by each of the two ^109 Cd.GSn peaks identified were pooled, lyophilized and redissolved in 4 ml of loading buffer (5 mM Tris-Mes, pH 8.0). For anion-exchange chromatography, 0.5 ml aliquots of the resuspended lyophilizates from gel-filtration chromatography were applied to a Mono-Q HR5/5 column (Pharmacia) equilibrated with the same buffer. Elution was with a linear gradient of NaCl (0.5 ml/minute; 0-500 mM) dissolved in loading buffer. The individual fractions corresponding to the major peaks of ^109 Cd obtained from the Mono-Q column (one each for the peaks resolved by gel-filtration chromatography) were pooled, lyophilized and resuspended in 4 ml deionized water after liquid scintillation counting.
MgATP-energized, uncoupler-insensitive ^109 Cd^2+ uptake by vacuolar membrane vesicles was measured at 25° C. in 200 μl reaction volumes containing 3 mM ATP, 3 mM MgSO4, 5 μM gramicidin-D, 10 mM creatine phosphate, 16 units/ml creatine kinase, 50 mM KCl, 400 mM sorbitol, 25 mM Tris-Mes (pH 8.0) and the indicated concentrations of ^109 CdSO4, GSH or ^109 Cd- and/or ^3 H-labeled purified Cd.GSn complexes as described herein except that the wash media contained 100 μM CdSO4 in addition to sorbitol (400 mM) and Tris-Mes (3 mM, pH 8.0).

[8] = read-out: I50 for uptake of IAA-GS

T1 sequence (P39109 whole entry): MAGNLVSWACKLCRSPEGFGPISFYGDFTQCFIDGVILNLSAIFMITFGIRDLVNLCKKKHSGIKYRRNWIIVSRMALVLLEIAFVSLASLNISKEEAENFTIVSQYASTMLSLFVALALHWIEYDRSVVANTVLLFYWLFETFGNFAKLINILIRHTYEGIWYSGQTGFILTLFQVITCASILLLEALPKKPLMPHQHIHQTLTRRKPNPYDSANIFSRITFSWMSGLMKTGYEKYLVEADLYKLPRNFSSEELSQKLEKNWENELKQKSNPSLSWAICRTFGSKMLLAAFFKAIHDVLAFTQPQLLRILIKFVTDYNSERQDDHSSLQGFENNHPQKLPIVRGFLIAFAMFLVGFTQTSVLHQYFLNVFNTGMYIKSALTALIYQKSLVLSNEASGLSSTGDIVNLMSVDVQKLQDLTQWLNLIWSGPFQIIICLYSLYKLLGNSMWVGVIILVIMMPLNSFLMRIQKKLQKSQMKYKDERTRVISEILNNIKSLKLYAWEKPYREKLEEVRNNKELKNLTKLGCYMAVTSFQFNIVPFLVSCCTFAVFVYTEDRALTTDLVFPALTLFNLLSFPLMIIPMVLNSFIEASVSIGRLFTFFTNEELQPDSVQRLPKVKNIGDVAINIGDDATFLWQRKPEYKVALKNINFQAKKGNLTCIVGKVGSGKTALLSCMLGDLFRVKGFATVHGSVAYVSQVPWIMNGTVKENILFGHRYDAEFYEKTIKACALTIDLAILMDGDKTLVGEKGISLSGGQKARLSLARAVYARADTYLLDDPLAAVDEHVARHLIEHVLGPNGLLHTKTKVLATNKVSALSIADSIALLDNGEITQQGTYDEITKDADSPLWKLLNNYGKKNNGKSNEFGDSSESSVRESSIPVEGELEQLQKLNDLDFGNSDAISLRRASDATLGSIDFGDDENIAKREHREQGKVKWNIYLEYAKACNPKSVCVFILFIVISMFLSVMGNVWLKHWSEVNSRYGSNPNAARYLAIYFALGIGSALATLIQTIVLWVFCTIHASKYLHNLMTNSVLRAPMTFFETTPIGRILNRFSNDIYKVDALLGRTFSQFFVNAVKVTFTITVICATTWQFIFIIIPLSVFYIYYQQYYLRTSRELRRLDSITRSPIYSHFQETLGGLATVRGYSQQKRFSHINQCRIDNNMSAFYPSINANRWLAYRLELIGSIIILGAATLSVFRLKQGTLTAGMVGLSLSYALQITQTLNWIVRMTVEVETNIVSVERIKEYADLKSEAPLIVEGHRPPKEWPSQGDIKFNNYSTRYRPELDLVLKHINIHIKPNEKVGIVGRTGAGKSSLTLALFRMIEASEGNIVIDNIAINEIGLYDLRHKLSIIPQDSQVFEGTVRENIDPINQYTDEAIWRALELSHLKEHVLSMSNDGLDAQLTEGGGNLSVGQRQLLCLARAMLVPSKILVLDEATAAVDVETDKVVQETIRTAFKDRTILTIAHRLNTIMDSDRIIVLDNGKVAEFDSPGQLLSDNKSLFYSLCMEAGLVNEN

[O]=[V]([O-])([O-])[O-] [Vanadate]
IC50 ([1]; V. radiata, read-out: I50 for uptake of C3G-GS): 7.9 µM | IC50 [1, 8]: 6.5 µM | inhibition of MgATP-dependent [3H]medicarpin-GS uptake ([1]; vanadate 10 μM, DNP-GS 100 μM, gramicidin D): more than 85% | I50 for MgATP-dependent, uncoupler-insensitive DNP-GS uptake [2]: Insensitive | IC50 ([3]; listed as vanadate): 179 µM | IC50 [3]: 179 µM | IC50 ([4]; vanadate, read-out: I50 for inhibition of the endogenous vacuolar GS-X pump of plant cells): 7.5 ± 3.9 µM | sensitivity of DNP-GS uptake to vanadate [5]: insensitive | IC50 ([6]; read-out: I50 for uptake of ABA-GS): > 150 µM | IC50 ([6]; read-out: I50 for uptake of C3G-GS): 8.2 µM | IC50 [6, 8]: 5.5 µM

O=[N+]([O-])c1ccc(Cl)c([N+](=O)[O-])c1 [CDNB, 1-chloro-2,4-dinitrobenzene]
inhibition of growth at 40 µM (DTY165 cells; 40 μM CDNB): 14% | inhibition of growth at 50 µM (DTY165 cells; 50 μM CDNB): 31% | inhibition of growth at 60 µM (DTY165 cells; 60 μM CDNB): 59% | inhibition of growth at 70 µM (DTY165 cells; 70 μM CDNB): 92% | inhibition of growth at 40 µM (DTY167 cells; 40 μM CDNB): 65% | inhibition of growth at 50 µM (DTY167 cells; 50 μM CDNB): 82% | inhibition of growth at 60 µM (DTY167 cells; 60 μM CDNB): 85% | inhibition of growth at 70 µM (DTY167 cells; 70 μM CDNB): 91% | fold induction at 150 µM ([3]; 24 h, read-out: increase of [3H]DNP-GS uptake into vesicles from pretreated cells): 2.8 | fold induction at 150 µM [7]: 1.7

CCN1C(=O)CC(SC[C@H](NC(=O)CC[C@H](N)C(=O)O)C(=O)NCC(=O)O)C1=O (stereo partly shown) [glutathione-S-N-ethylmaleimide]
Km ([4]; read-out: Km for transport by endogenous plant vacuolar GS-X pump): 500 µM

Reference: US6166290A, “Glutathione-S-conjugate transport in plants” (The Trustees of the University of Pennsylvania, priority 1997, dated 2000)
